According to ChEMBL document CHEMBL3885881, “DrugMatrix”:

Organism: Rattus norvegicus
Format: toxicity, organism-based, Sprague-Dawley
Settings: in vivo, po, 24 h, route oral GAVAGE, time 1 day, […]; for ABSOLUTE BASOPHIL / ABSOLUTE EOSINOPHIL / ABSOLUTE LYMPHOCYTE / ABSOLUTE MONOCYTE / BASOPHIL / EOSINOPHIL / ERYTHROCYTE COUNT / HEMATOCRIT / HEMOGLOBIN / LEUKOCYTE COUNT / LYMPHOCYTE / MEAN CORPUSCULAR HEMOGLOBIN / MEAN CORPUSCULAR HEMOGLOBIN CONCENTRATION / MEAN CORPUSCULAR VOLUME / MONOCYTE / NEUTROPHIL / PLATELET COUNT: tissue Blood; for ALANINE AMINOTRANSFERASE / ALBUMIN / ALKALINE PHOSPHATASE / ASPARTATE AMINOTRANSFERASE / BLOOD UREA NITROGEN / CARBON DIOXIDE / CHLORIDE / CHOLESTEROL / CREATINE PHOSPHOKINASE / CREATININE / GLUCOSE / LACTATE DEHYDROGENASE / LIPASE / PHOSPHORUS / POTASSIUM / SODIUM / TOTAL BILIRUBIN / TOTAL PROTEIN / URIC ACID: tissue Plasma
[1] = 0 mg/kg, vehicle control, dose level Control

Description: DrugMatrix - Regimen: Single

Question: Which ABSOLUTE BASOPHIL [1] does the source give for `CC(CCc1ccc(O)cc1)NCCc1ccc(O)c(O)c1` (configuration not stated) [DOBUTAMINE] here?
Answer: 46.7 cells/µL

Question: And the ABSOLUTE EOSINOPHIL [1]?
Answer: 130 cells/µL

Question: What about the ABSOLUTE LYMPHOCYTE [1] of the same compound?
Answer: 8720 cells/µL

Question: What about the ABSOLUTE MONOCYTE [1] of the same compound?
Answer: 140 cells/µL

Question: What about the BASOPHIL [1] of the same compound?
Answer: 0.43%

Question: And the EOSINOPHIL [1]?
Answer: 1.33%

Question: And the “ERYTHROCYTE COUNT” value [1]?
Answer: 6.45 x10E6/uL

Question: And the HEMATOCRIT [1]?
Answer: 42.2%

Question: What about the HEMOGLOBIN [1] of the same compound?
Answer: 13.33 G/DL

Question: What about the “LEUKOCYTE COUNT” value [1] of the same compound?
Answer: 10.59 x10E3/uL

Question: What about the LYMPHOCYTE [1] of the same compound?
Answer: 82.13%

Question: And the “MEAN CORPUSCULAR HEMOGLOBIN” value [1]?
Answer: 20.67 pg

Question: What about the “MEAN CORPUSCULAR HEMOGLOBIN CONCENTRATION” value [1] of the same compound?
Answer: 31.6 G/DL

Question: What about the “MEAN CORPUSCULAR VOLUME” value [1] of the same compound?
Answer: 65.4 fL

Question: And the MONOCYTE [1]?
Answer: 1.37%

Question: And the NEUTROPHIL [1]?
Answer: 14.3%

Question: What about the “PLATELET COUNT” value [1] of the same compound?
Answer: 1048.67 x10E3/uL

Question: What about the “ALANINE AMINOTRANSFERASE” value [1] of the same compound?
Answer: 44 u/L

Question: What about the ALBUMIN [1] of the same compound?
Answer: 3.93 G/DL

Question: What about the “ALKALINE PHOSPHATASE” value [1] of the same compound?
Answer: 551.33 u/L

Question: What about the “ASPARTATE AMINOTRANSFERASE” value [1] of the same compound?
Answer: 97 u/L

Question: What about the “BLOOD UREA NITROGEN” value [1] of the same compound?
Answer: 13.5 mg/dL

Question: What about the “CARBON DIOXIDE” value [1] of the same compound?
Answer: 37.33 mmol/L

Question: And the CHLORIDE [1]?
Answer: 102.33 MEQ/L

Question: What about the CHOLESTEROL [1] of the same compound?
Answer: 83 mg/dL

Question: What about the “CREATINE PHOSPHOKINASE” value [1] of the same compound?
Answer: 365.33 u/L

Question: And the CREATININE [1]?
Answer: 0.4 mg/dL

Question: And the GLUCOSE [1]?
Answer: 189 mg/dL

Question: What about the “LACTATE DEHYDROGENASE” value [1] of the same compound?
Answer: 170.33 u/L

Question: What about the LIPASE [1] of the same compound?
Answer: 10.67 u/L

Question: And the PHOSPHORUS [1]?
Answer: 11.53 mg/dL

Question: What about the POTASSIUM [1] of the same compound?
Answer: 5.63 MEQ/L

Question: What about the SODIUM [1] of the same compound?
Answer: 144.33 MEQ/L

Question: And the “TOTAL BILIRUBIN” value [1]?
Answer: 0.4 mg/dL

Question: What about the “TOTAL PROTEIN” value [1] of the same compound?
Answer: 6.27 G/DL

Question: And the “URIC ACID” value [1]?
Answer: 0.87 mg/dL

Question: What about the ABSOLUTE BASOPHIL (15 mg/kg, dose level High) of the same compound?
Answer: 16.7 cells/µL

Question: What about the ABSOLUTE EOSINOPHIL (15 mg/kg, dose level High) of the same compound?
Answer: 56.7 cells/µL

Question: And the ABSOLUTE LYMPHOCYTE (15 mg/kg, dose level High)?
Answer: 5150 cells/µL

Question: And the ABSOLUTE MONOCYTE (15 mg/kg, dose level High)?
Answer: 130 cells/µL

Question: What about the BASOPHIL (15 mg/kg, dose level High) of the same compound?
Answer: 0.23%

Question: What about the EOSINOPHIL (15 mg/kg, dose level High) of the same compound?
Answer: 1%

Question: What about the “ERYTHROCYTE COUNT” value (15 mg/kg, dose level High) of the same compound?
Answer: 6.18 x10E6/uL

Question: What about the HEMATOCRIT (15 mg/kg, dose level High) of the same compound?
Answer: 41.87%

Question: What about the HEMOGLOBIN (15 mg/kg, dose level High) of the same compound?
Answer: 13.57 G/DL

Question: And the “LEUKOCYTE COUNT” value (15 mg/kg, dose level High)?
Answer: 6.42 x10E3/uL

Question: And the LYMPHOCYTE (15 mg/kg, dose level High)?
Answer: 79.73%

Question: What about the “MEAN CORPUSCULAR HEMOGLOBIN” value (15 mg/kg, dose level High) of the same compound?
Answer: 21.9 pg

Question: And the “MEAN CORPUSCULAR HEMOGLOBIN CONCENTRATION” value (15 mg/kg, dose level High)?
Answer: 32.3 G/DL

Question: What about the “MEAN CORPUSCULAR VOLUME” value (15 mg/kg, dose level High) of the same compound?
Answer: 67.7 fL

Question: What about the MONOCYTE (15 mg/kg, dose level High) of the same compound?
Answer: 2.1%

Question: And the NEUTROPHIL (15 mg/kg, dose level High)?
Answer: 16.6%

Question: And the “PLATELET COUNT” value (15 mg/kg, dose level High)?
Answer: 1219 x10E3/uL

Question: What about the “ALANINE AMINOTRANSFERASE” value (15 mg/kg, dose level High) of the same compound?
Answer: 48 u/L

Question: And the ALBUMIN (15 mg/kg, dose level High)?
Answer: 3.87 G/DL

Question: What about the “ALKALINE PHOSPHATASE” value (15 mg/kg, dose level High) of the same compound?
Answer: 483.33 u/L

Question: And the “ASPARTATE AMINOTRANSFERASE” value (15 mg/kg, dose level High)?
Answer: 106 u/L

Question: And the “BLOOD UREA NITROGEN” value (15 mg/kg, dose level High)?
Answer: 13.67 mg/dL

Question: And the “CARBON DIOXIDE” value (15 mg/kg, dose level High)?
Answer: 36.33 mmol/L

Question: What about the CHLORIDE (15 mg/kg, dose level High) of the same compound?
Answer: 105 MEQ/L

Question: And the CHOLESTEROL (15 mg/kg, dose level High)?
Answer: 67.33 mg/dL

Question: What about the “CREATINE PHOSPHOKINASE” value (15 mg/kg, dose level High) of the same compound?
Answer: 728.67 u/L

Question: What about the CREATININE (15 mg/kg, dose level High) of the same compound?
Answer: 0.5 mg/dL

Question: And the GLUCOSE (15 mg/kg, dose level High)?
Answer: 182.33 mg/dL

Question: And the “LACTATE DEHYDROGENASE” value (15 mg/kg, dose level High)?
Answer: 183.67 u/L

Question: And the LIPASE (15 mg/kg, dose level High)?
Answer: 13.67 u/L

Question: And the PHOSPHORUS (15 mg/kg, dose level High)?
Answer: 12.43 mg/dL

Question: What about the POTASSIUM (15 mg/kg, dose level High) of the same compound?
Answer: 5.77 MEQ/L

Question: What about the SODIUM (15 mg/kg, dose level High) of the same compound?
Answer: 145 MEQ/L

Question: What about the “TOTAL BILIRUBIN” value (15 mg/kg, dose level High) of the same compound?
Answer: 0.33 mg/dL

Question: And the “TOTAL PROTEIN” value (15 mg/kg, dose level High)?
Answer: 6.17 G/DL

Question: And the “URIC ACID” value (15 mg/kg, dose level High)?
Answer: 1.47 mg/dL
